# Laboratory results reported in ChEMBL document CHEMBL1201862, “PubChem BioAssay data set” (2004).
#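 Cultured in 96-well plates, cells were exposed to test compound for 48 hours across five concentrations. At the GI50, growth is halved.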 Activity calls are given as the source filed them. Rule as the data show it: active = GI50 up to about 1.1 µM and inactive = higher.
# Legend:
# Assay in all cases: inhibition of tumour cell growth, NCI panel, 48 h
# HL-60 = system: HL-60
# LOX IMVI = system: LOX IMVI
# T47D = system: T47D
# 786-0 = system: 786-0
# Malme-3M = system: Malme-3M
# NCI-H23 = system: NCI-H23
# A549 = system: A549
# SK-MEL-2 = system: SK-MEL-2
# UACC-257 = system: UACC-257
# Hs-578T = system: Hs-578T
# OVCAR-3 = system: OVCAR-3
# SF-539 = system: SF-539
# NCI-H226 = system: NCI-H226
# SK-MEL-5 = system: SK-MEL-5
# MDA-MB-231 = system: MDA-MB-231
# MDA-MB-435 = system: MDA-MB-435
# SR = system: SR
# HCC 2998 = system: HCC 2998
# BT-549 = system: BT-549
# M19-MEL = system: M19-MEL
Compound,GI50 (HL-60),GI50 (LOX IMVI),GI50 (T47D),GI50 (786-0),GI50 (Malme-3M),GI50 (NCI-H23),GI50 (A549),GI50 (SK-MEL-2),GI50 (UACC-257),GI50 (Hs-578T),GI50 (OVCAR-3),GI50 (SF-539),GI50 (NCI-H226),GI50 (SK-MEL-5),GI50 (MDA-MB-231),GI50 (MDA-MB-435),GI50 (SR),GI50 (HCC 2998),GI50 (BT-549),GI50 (M19-MEL)
O=C(CC(=O)c1ccncc1)c1ccccc1,1.01 µM (active),31.8 µM (inactive),> 100 µM (inactive),66.4 µM (inactive),40.3 µM (inactive),80.7 µM (inactive),> 100 µM (inactive),> 81.1 µM (inactive),> 85.7 µM (inactive),> 100 µM (inactive),> 85.3 µM (inactive),63.5 µM (inactive),> 100 µM (inactive),90.4 µM (inactive),> 100 µM (inactive),> 100 µM (inactive),22.1 µM (inactive),> 67.1 µM (inactive),> 100 µM (inactive),
COc1ccc(/C=C2\CCCCC2=O)cc1,> 100 µM (inactive),> 100 µM (inactive),,> 100 µM (inactive),,> 100 µM (inactive),> 100 µM (inactive),,,,> 100 µM (inactive),> 100 µM (inactive),,> 100 µM (inactive),,,,,,> 100 µM (inactive)
CCN(CC)CCOCCOCC1(c2ccc(Cl)c(Cl)c2)CCCCC1,5.82 µM (inactive),7.08 µM (inactive),3.48 µM (inactive),3.28 µM (inactive),5.33 µM (inactive),11 µM (inactive),10.9 µM (inactive),14.9 µM (inactive),2.88 µM (inactive),2.96 µM (inactive),8.67 µM (inactive),11.2 µM (inactive),17.9 µM (inactive),2.19 µM (inactive),10.8 µM (inactive),4 µM (inactive),11 µM (inactive),4.07 µM (inactive),12.7 µM (inactive),
O=S(=O)(O)c1c(Cl)c(Cl)c(O)c2ncccc12,1.87 µM (inactive),2.19 µM (inactive),7.08 µM (inactive),8.02 µM (inactive),10.4 µM (inactive),11.2 µM (inactive),12.4 µM (inactive),12.5 µM (inactive),14.9 µM (inactive),20.2 µM (inactive),10.7 µM (inactive),16 µM (inactive),20.9 µM (inactive),9.68 µM (inactive),27.7 µM (inactive),9.4 µM (inactive),6.3 µM (inactive),13.5 µM (inactive),20.2 µM (inactive),
N=C(N)N/N=C/c1c(-c2cccc([N+](=O)[O-])c2)nc2n1CCS2,19.1 µM (inactive),16.6 µM (inactive),8.02 µM (inactive),29.3 µM (inactive),18.9 µM (inactive),25.5 µM (inactive),18.5 µM (inactive),17.2 µM (inactive),19.1 µM (inactive),7.1 µM (inactive),30.3 µM (inactive),20 µM (inactive),20.3 µM (inactive),14.8 µM (inactive),16.7 µM (inactive),28.2 µM (inactive),12.7 µM (inactive),19.4 µM (inactive),15.9 µM (inactive),
COc1ccc2c(c1)CCc1cc(C(N)=O)c3nnnn3c1-2,> 100 µM (inactive),> 58.1 µM (inactive),25.2 µM (inactive),33.6 µM (inactive),18.2 µM (inactive),60.1 µM (inactive),> 100 µM (inactive),> 42.1 µM (inactive),85.5 µM (inactive),0.408 µM (active),> 54.3 µM (inactive),78.7 µM (inactive),> 100 µM (inactive),> 100 µM (inactive),> 49.2 µM (inactive),> 100 µM (inactive),> 100 µM (inactive),39.8 µM (inactive),35.5 µM (inactive),
COc1cccc(Nc2nc(NNC(=O)Cc3ccccc3)nc(NNC(=O)c3ccncc3)n2)c1,68.1 µM (inactive),13.4 µM (inactive),> 10 µM (inactive),> 10 µM (inactive),> 10 µM (inactive),> 10 µM (inactive),> 10 µM (inactive),> 100 µM (inactive),> 10 µM (inactive),> 10 µM (inactive),> 100 µM (inactive),> 10 µM (inactive),> 100 µM (inactive),> 10 µM (inactive),8.55 µM (inactive),52.8 µM (inactive),6.62 µM (inactive),> 10 µM (inactive),> 10 µM (inactive),
C(/C=N/N=C1NCCN1)=N\N=C1NCCN1,12.5 µM (inactive),> 100 µM (inactive),> 100 µM (inactive),> 100 µM (inactive),> 100 µM (inactive),> 100 µM (inactive),> 100 µM (inactive),> 100 µM (inactive),> 100 µM (inactive),> 100 µM (inactive),> 100 µM (inactive),> 100 µM (inactive),> 100 µM (inactive),> 100 µM (inactive),> 100 µM (inactive),> 100 µM (inactive),> 100 µM (inactive),> 100 µM (inactive),> 100 µM (inactive),
COc1cc2c(cc1OC)C(=O)N(c1ccc(O)cc1)C2,> 100 µM (inactive),> 100 µM (inactive),> 100 µM (inactive),> 100 µM (inactive),> 100 µM (inactive),> 100 µM (inactive),> 100 µM (inactive),> 100 µM (inactive),> 100 µM (inactive),> 100 µM (inactive),> 100 µM (inactive),> 100 µM (inactive),> 100 µM (inactive),> 100 µM (inactive),> 100 µM (inactive),> 100 µM (inactive),> 100 µM (inactive),> 100 µM (inactive),> 100 µM (inactive),
CC(=O)O[C@H]1C[C@H](O[C@H]2[C@@H](O)C[C@H](O[C@H]3[C@@H](O)C[C@H](O[C@H]4CC[C@@]5(C)[C@H](CC[C@@H]6[C@@H]5C[C@@H](O)[C@]5(C)[C@@H](C7=CC(=O)OC7)CC[C@]65O)C4)O[C@@H]3C)O[C@@H]2C)O[C@H](C)[C@H]1O[C@@H]1O[C@H](CO)[C@@H](O)[C@H](O)[C@H]1O [LANATOSIDE C],0.0332 µM (active),0.042 µM (active),0.0778 µM (active),0.0322 µM (active),0.0678 µM (active),0.0193 µM (active),0.0146 µM (active),0.165 µM (active),0.238 µM (active),0.0252 µM (active),0.041 µM (active),0.0336 µM (active),0.243 µM (active),0.0465 µM (active),0.372 µM (active),0.212 µM (active),0.1 µM (active),0.148 µM (active),0.044 µM (active),
COc1c2c(c(CC=C(C)C)c3oc(=O)c(-c4ccc(O)cc4)c(O)c13)OC(C)(C)C=C2 [LONCHOCARPIC ACID],21.2 µM (inactive),34.4 µM (inactive),14.3 µM (inactive),25.5 µM (inactive),30.8 µM (inactive),43.9 µM (inactive),19.1 µM (inactive),19.6 µM (inactive),27.7 µM (inactive),36.2 µM (inactive),15.7 µM (inactive),15.1 µM (inactive),21.5 µM (inactive),12.8 µM (inactive),24.8 µM (inactive),15.2 µM (inactive),18.5 µM (inactive),20.8 µM (inactive),41.8 µM (inactive),
